Where no end group is shown, it is not given here.
Key:
NHEKs [1] = assay: U1 RNA co-association with early endosome (EEA1) in NHEKs; type: cell-based, human; settings: 37 °C, 4 hours
Description: (§1) Figure 2 Structure and cell binding of cathelicidin and dsRNA. (a) Structures of LL37, LL34, and LL34(I20P) bound to dsRNA were solved using SAXS. SAXS data is plotted as the scattering intensity I(q) vs. the momentum transfer vector q. LL34 (blue) and LL34(I20P) (green) condense dsRNA into square lattices with first peak positions of q10 = 0.167 Å^−1 and 0.170 Å^−1, respectively. Higher order Bragg reflections due to scattering of the square lattice of LL34 and LL34(I20P) are labeled for both complexes. In comparison, LL37 (magenta) condenses dsRNA into a columnar lattice with short-ranged order, with a first peak position of q1 = 0.172 Å^−1. (b) Linear fits of Bragg peak positions indicate that LL34-dsRNA (blue) and LL34(I20P)-dsRNA (green) complexes have inter-dsRNA spacings of 3.76 nm and 3.70 nm, respectively. Each reflection corresponding to the peaks in a for LL34 and LL34(I20P) are labeled. Close overlap of the two linear fits indicate that LL34-dsRNA and LL34(I20P)-dsRNA complexes have similar unit cell structures and inter-dsRNA spacings. End-on views along the dsRNA long-axis of the columnar (c) LL37-dsRNA and (d) LL34-dsRNA or LL34(I20P)-dsRNA complexes are shown. In (d), LL34-dsRNA and LL34(I20P)-dsRNA both form square columnar structures with similar unit cell architectures. […]

NHEKs [2] = assay: U1 RNA binding to the cell at 4 °C (immunocytofluorescence); type: cell-based, human; settings: 1 hour, peptide 2.5 μM
Description: as §1

SR-B1 = target: T1, SR-B1 (Homo sapiens, UniProt Q8WTV0); assay: Immunofluorescence localisation of U1 RNA with SR-B1; type: cell-based; settings: NHEKs, 4 °C, 10 minutes with U1 RNA and peptide
T1 construct: endogenous in cells; host or cells: NHEK (primary neonatal human epidermal keratinocytes)
T1 sequence (Q8WTV0 1-509 isoform Q8WTV0-2): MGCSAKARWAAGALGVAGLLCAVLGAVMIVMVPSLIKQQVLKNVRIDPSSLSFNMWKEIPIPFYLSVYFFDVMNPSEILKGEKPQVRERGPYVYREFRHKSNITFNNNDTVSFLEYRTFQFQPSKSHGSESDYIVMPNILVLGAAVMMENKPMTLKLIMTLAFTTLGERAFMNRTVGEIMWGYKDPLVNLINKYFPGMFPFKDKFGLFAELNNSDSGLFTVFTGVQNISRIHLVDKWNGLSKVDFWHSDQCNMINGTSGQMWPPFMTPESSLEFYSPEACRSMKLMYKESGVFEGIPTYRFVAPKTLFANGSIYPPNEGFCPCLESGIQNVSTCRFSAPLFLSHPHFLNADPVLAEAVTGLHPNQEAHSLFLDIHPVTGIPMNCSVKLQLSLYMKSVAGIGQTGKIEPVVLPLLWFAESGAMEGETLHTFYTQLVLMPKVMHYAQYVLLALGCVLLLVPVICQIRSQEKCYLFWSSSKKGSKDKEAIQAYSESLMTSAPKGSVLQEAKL
Protocol: NHEKs were grown on 8-well chamber slides (Thermofisher Scientific). After indicated treatments, cells were fixed in 4% paraformaldehyde (PFA) (Thermofisher Scientific) for 10 minutes and blocked with 3% bovine serum albumin, 0.2 M Glycine (Sigma) with or without 1 mg/mL saponin (Sigma) prior to incubating with primary antibodies followed by appropriate 488- or 568-coupled secondary antibodies, or 488-streptavidin conjugate. Nuclei were counterstained with DAPI. All images were taken with an Olympus BX41 microscope (widefield), Zeiss LSM510 confocal microscope, or Nikon A1R Confocal STORM microscope as indicated.
Figure S3. a) NHEKs cultured at 4 °C for 10 minutes with U1 RNA and cathelicidin peptide. […]
RNA. NHEKs were cultured with various cathelicidin peptides (2.5 µM) for 10 minutes, then with biotinylated U1 RNA (2.5 µg/mL) at 4 °C for 1 hour before physical proximity of SR-A6 and U1 RNA was determined using a fluorescence-based PLA that produces a red fluorescent signal. […] PMA-treated THP1 were cultured with various cathelicidin peptides (3 µM) for 10 minutes, then with biotinylated U1 RNA (2.5 µg/mL) at 4 °C for 1 hour before physical proximity of U1 RNA and scavenger receptors was determined using a fluorescence-based PLA, each count is PLA complexes observed in 5 visual fields. f) NHEKs cultured at 37 °C that were stained immediately after or after 5 […]

| U1 RNA localization with SR-B1 (SR-B1) | Substance | co-association of U1 RNA with the early endosome (NHEKs [1]) | capacity to enable U1 RNA to bind to the cell (NHEKs [2]) |
| --- | --- | --- | --- |
| enabled U1 RNA to localize with SR-B1 | LL37 | induced partial co-association with the early endosome | showed the capacity to enable U1 RNA to bind to the cell |
| enabled U1 RNA to localize with SR-B1 | LLGDFFRKSKEKIGKEFKRIVQRIKDFLRNLVPR [LL34] | induced partial co-association with the early endosome | showed the capacity to enable U1 RNA to bind to the cell |

Reference: article PMC5838106, “Cathelicidin promotes inflammation by enabling binding of self-RNA to cell surface scavenger receptors” (Scientific Reports, 2018)
